These results are taken from US11780845B2 (Relay Therapeutics, Inc., priority 2019, dated 2023).

Sequence of FGFR2 (P21802 22-821): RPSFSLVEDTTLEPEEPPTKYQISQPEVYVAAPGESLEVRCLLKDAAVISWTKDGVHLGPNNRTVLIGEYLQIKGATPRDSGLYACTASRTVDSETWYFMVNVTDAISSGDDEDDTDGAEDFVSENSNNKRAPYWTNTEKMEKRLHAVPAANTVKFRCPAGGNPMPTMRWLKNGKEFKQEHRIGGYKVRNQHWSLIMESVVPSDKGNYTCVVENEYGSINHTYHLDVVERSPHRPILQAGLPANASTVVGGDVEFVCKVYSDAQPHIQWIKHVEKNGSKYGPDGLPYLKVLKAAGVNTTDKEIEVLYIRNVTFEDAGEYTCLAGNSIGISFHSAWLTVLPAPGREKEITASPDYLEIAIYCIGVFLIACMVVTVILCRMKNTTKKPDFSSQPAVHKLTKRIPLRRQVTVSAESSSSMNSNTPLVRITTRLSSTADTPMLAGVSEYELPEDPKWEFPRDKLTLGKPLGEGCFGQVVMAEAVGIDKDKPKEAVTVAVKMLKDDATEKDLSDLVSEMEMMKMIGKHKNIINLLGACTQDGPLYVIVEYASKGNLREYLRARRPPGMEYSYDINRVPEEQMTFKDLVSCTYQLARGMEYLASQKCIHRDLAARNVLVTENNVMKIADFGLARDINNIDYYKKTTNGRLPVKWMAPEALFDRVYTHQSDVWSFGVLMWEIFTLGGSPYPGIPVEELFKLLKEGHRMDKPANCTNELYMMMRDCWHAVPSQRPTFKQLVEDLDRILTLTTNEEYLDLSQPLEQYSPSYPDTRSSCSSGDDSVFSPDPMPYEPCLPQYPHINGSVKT

The experiment concerns the target FGFR2 (Homo sapiens (Human), UniProt P21802). Kind of experiment: FGFR2 Biochemical Caliper Assay. The method, then:
Compounds of the present invention were also tested in a FGFR2 Biochemical Caliper Assay. Compounds were prepared in 10 mM DMSO solution and serially diluted into 11 concentrations by 3-fold dilution. […] 5 uL of ATP solution (100 uM) was added to start the reaction and the plate was incubated for 90 minutes, then 70 uL of stopping buffer (0.5M EDTA) was added to terminate the reaction. Each well was analyzed using EZ reader.
Take `C=C(C)C(=O)Nc1ccc(-c2c(-c3ccc(=O)n(Cc4ccccc4)c3)c3c(N)ncnc3n2C)cc1` [Example 182]: the IC50 (in general, the concentration that inhibits the measured activity by half) lay in the range of 1 to 100 µM.
On to `C=C(C)C(=O)Nc1ccc(-c2c(-c3cccc(C(=O)N4CCCC4)c3)c3c(N)ncnc3n2C)cc1` [Example 183], for which the IC50 lay within 1 to 100 µM.
For the compound `C=C(C)C(=O)Nc1ccc(-c2c(-c3ccc(-n4cncn4)nc3)c3c(N)ncnc3n2C)cc1` [Example 184], the IC50 lay within 1 to 100 µM.
Turning to `C=C(C)C(=O)Nc1ccc(-c2c(-c3ccc4[nH]c(C(=O)O)cc4c3)c3c(N)ncnc3n2C)cc1` [Example 185], the IC50 was in the range of 1 to 100 µM.
On to `C=C(C)C(=O)Nc1ccc(-c2c(-c3ccc(OC4CCN(C)CC4)nc3)c3c(N)ncnc3n2C)cc1` [Example 187], for which the IC50 lay in the range of 1 to 100 µM.
As to `C=C(C)C(=O)Nc1ccc(-c2c(-c3ccc4c(c3)CCC4C(=O)N(C)C)c3c(N)ncnc3n2C)cc1` (stereo not drawn) [Example 191], the concentration for half-maximal inhibition (IC50) lay within 1 to 100 µM.
`C=C(C)C(=O)Nc1ccc(-c2c(-c3ccc(-n4cccn4)nc3)c3c(N)ncnc3n2C)cc1` [Example 192] registered an IC50 of 1 to 100 µM.
`C=C(C)C(=O)Nc1ccc(-c2c(-c3ccc4c(c3)CS(=O)(=O)C4)c3c(N)ncnc3n2C)cc1` [Example 193] yielded an IC50 of 1 to 100 µM.
In turn, `C=C(C)C(=O)Nc1ccc(-c2c(-c3ccc(OCC)c(OCC)c3)c3c(N)ncnc3n2C)cc1` [Example 196] came in with an IC50 of 1 to 100 µM.
The figure for `C=C(C)C(=O)Nc1ccc(-c2c(-c3ccc(CN(C)C(C)=O)cc3)c3c(N)ncnc3n2C)cc1` [Example 198] is 1 to 100 µM.
`C=C(C)C(=O)Nc1ccc(-c2c(-c3cc(O)c(Oc4ncccn4)c(CC)c3)c3c(N)ncnc3n2C)cc1` [Example 200] came in with an IC50 of 1 to 100 µM.
Turning to `C=C(C)C(=O)Nc1ccc(-c2c(-c3ccc4[nH]c(=O)n(C)c4c3)c3c(N)ncnc3n2C)cc1` [Example 203], the IC50 was 1 to 100 µM.
`C=C(C)C(=O)Nc1ccc(-c2c(-c3ccc4c(c3)CC(NC(C)=O)C4)c3c(N)ncnc3n2C)cc1` (stereo not drawn) [Example 204] returned an IC50 of 1 to 100 µM.
For the compound `C=C(C)C(=O)Nc1ccc(-c2c(-c3ccc4[nH]c(C(=O)N(C)C)cc4c3)c3c(N)ncnc3n2C)cc1` [Example 205], the IC50 was in the range of 1 to 100 µM.
As to `C=C(C)C(=O)Nc1ccc(-c2c(-c3ccc(N4CCCC4=O)nc3)c3c(N)ncnc3n2C)cc1` [Example 208], the IC50 was in the range of 1 to 100 µM.
Consider `C=C(C)C(=O)Nc1ccc(-c2c(-c3ccc4c(c3)CN(C)C4=O)c3c(N)ncnc3n2C)cc1` [Example 209], for which the IC50 lay in the range of 1 to 100 µM.
Regarding `C=C(C)C(=O)Nc1ccc(-c2c(-c3cnc4c(c3)OCCN4C)c3c(N)ncnc3n2C)cc1` [Example 214], the IC50 fell in the range of 0.1 to 0.25 µM.
On to `C=C(C)C(=O)Nc1ccc(-c2c(-c3ccc(Cc4nn[nH]n4)cc3)c3c(N)ncnc3n2C)cc1` [Example 218], for which the IC50 fell in the range of 1 to 100 µM.
Regarding `C=C(C)C(=O)Nc1ccc(-c2c(-c3cnn(CC4CCNCC4)c3)c3c(N)ncnc3n2C)cc1` [Example 221], the IC50 lay in the range of 1 to 100 µM.
The compound `C=C(C)C(=O)Nc1ccc(-c2c(-c3ccc(N(C)C(=O)C4CCCC4)cc3)c3c(N)ncnc3n2C)cc1` [Example 222] had an IC50 of 1 to 100 µM.
For `C=C(C)C(=O)Nc1ccc(-c2c(-c3ccc(Sc4ccccc4)nc3)c3c(N)ncnc3n2C)cc1` [Example 225] the value was 0.25 to 1 µM; for `C=C(C)C(=O)Nc1ccc(-c2c(-c3ccc(NC(=O)C4CCC4)cc3)c3c(N)ncnc3n2C)cc1` [Example 226], < 0.1 µM; for `C=C(C)C(=O)Nc1ccc(-c2c(-c3ccc(C(=O)N4CC5(CCC5)C4)cc3)c3c(N)ncnc3n2C)cc1` [Example 231], 1 to 100 µM.
For `C=C(C)C(=O)Nc1ccc(-c2c(-c3ccc4c(c3)CCN4C(=O)NC)c3c(N)ncnc3n2C)cc1` [Example 232] the value was 0.25 to 1 µM; for `C=C(C)C(=O)Nc1ccc(-c2c(-c3ccc(C(=O)N4CC[C@H](OC)C4)cc3)c3c(N)ncnc3n2C)cc1` [Example 240], 1 to 100 µM; for `C=C(C)C(=O)Nc1ccc(-c2c(-c3ccc(C(=O)N4CCC(OC)CC4)cc3)c3c(N)ncnc3n2C)cc1` [Example 242], 1 to 100 µM.
In turn, `C=C(C)C(=O)Nc1ccc(-c2c(-c3ccc(C(=O)N4CC5(CCO5)C4)cc3)c3c(N)ncnc3n2C)cc1` [Example 243] gave an IC50 of 1 to 100 µM.
Take `C=C(C)C(=O)Nc1ccc(-c2c(-c3ccc(C(=O)N(C)C4CCOC4)cc3)c3c(N)ncnc3n2C)cc1` (stereo not drawn) [Example 247]: the IC50 lay within 1 to 100 µM.
As to `C=C(C)C(=O)Nc1ccc(-c2c(-c3ccc4c(c3)CNC4=O)c3c(N)ncnc3n2C)cc1` [Example 250], the IC50 was in the range of 1 to 100 µM.
In the case of `C=C(C)C(=O)Nc1ccc(-c2c(-c3ccc(C(=O)N4CCC(F)CC4)cc3)c3c(N)ncnc3n2C)cc1` [Example 251], the IC50 was 0.25 to 1 µM.
`C=C(C)C(=O)Nc1ccc(-c2c(-c3ccc(C(=O)N4CC[C@@H](OC)C4)cc3)c3c(N)ncnc3n2C)cc1` [Example 252]: the IC50 lay within 0.25 to 1 µM.
In turn, `C=C(C)C(=O)Nc1ccc(-c2c(-c3ccc(OCC4CCCC4)cc3)c3c(N)ncnc3n2C)cc1` [Example 253] displayed an IC50 of 0.25 to 1 µM.
Consider `C=C(C)C(=O)Nc1ccc(-c2c(-c3ccc(C(=O)N(C)CCO)cc3)c3c(N)ncnc3n2C)cc1` [Example 254], for which the IC50 is 0.25 to 1 µM.
Compound `C=C(C)C(=O)Nc1ccc(-c2c(-c3ccc(C(=O)N(C)c4ncccn4)cc3)c3c(N)ncnc3n2C)cc1` [Example 256] yielded an IC50 of 1 to 100 µM.
For `C=C(C)C(=O)Nc1ccc(-c2c(-c3ccc(C(=O)N4CC(F)(F)C4)cc3)c3c(N)ncnc3n2C)cc1` [Example 259], the IC50 lay within 1 to 100 µM.
As to `C=C(C)C(=O)Nc1ccc(-c2c(-c3ccc(C(=O)N4CC(C5CCOC5)C4)cc3)c3c(N)ncnc3n2C)cc1` (stereo not drawn) [Example 261], the IC50 fell in the range of 1 to 100 µM.
For `C=C(C)C(=O)Nc1ccc(-c2c(C3=CCN(C(=O)NC)CC3)c3c(N)ncnc3n2C)cc1` [Example 268] the value was 1 to 100 µM.
On to `C=C(C)C(=O)Nc1ccc(-c2c(-c3ccc(C(=O)N(C)CC4CCCO4)cc3)c3c(N)ncnc3n2C)cc1` (stereo not drawn) [Example 269], for which the IC50 was 1 to 100 µM.
Compound `C=C(C)C(=O)Nc1ccc(-c2c(-c3ccc(C(=O)N4CCC5(COC5)C4)cc3)c3c(N)ncnc3n2C)cc1` [Example 271] had an IC50 of 1 to 100 µM.
Turning to `C=C(C)C(=O)Nc1ccc(-c2c(-c3ccc(C(=O)N(C)C4CC(F)(F)C4)cc3)c3c(N)ncnc3n2C)cc1` [Example 273], the IC50 was in the range of 0.25 to 1 µM.
As for `C=C(C)C(=O)Nc1ccc(-c2c(-c3ccc(=O)n(C4CC4)c3)c3c(N)ncnc3n2C)cc1` [Example 275], the IC50 lay within 1 to 100 µM.
For `C=C(C)C(=O)Nc1ccc(-c2c(-c3ccc(-c4cc(C)no4)cc3)c3c(N)ncnc3n2C)cc1` [Example 277], the IC50 fell in the range of 0.25 to 1 µM.
Turning to `C=C(C)C(=O)Nc1ccc(-c2c(-c3ccc(-c4cocn4)cc3)c3c(N)ncnc3n2C)cc1` [Example 278], the IC50 was in the range of 0.25 to 1 µM.
In turn, `C=C(C)C(=O)Nc1ccc(-c2c(-c3ccc(-c4nc(C)c(C)o4)cc3)c3c(N)ncnc3n2C)cc1` [Example 279] gave a half-inhibitory concentration (IC50) of 0.1 to 0.25 µM.
Compound `C=C(C)C(=O)Nc1ccc(-c2c(-c3ccc(-c4nnc(NC)s4)cc3)c3c(N)ncnc3n2C)cc1` [Example 280] gave an IC50 of 0.1 to 0.25 µM.
As for `C=C(C)C(=O)Nc1ccc(-c2c(-c3ccc4c(ccn4S(C)(=O)=O)c3)c3c(N)ncnc3n2C)cc1` [Example 281], the IC50 fell in the range of 1 to 100 µM.
In the case of `C=C(C)C(=O)Nc1ccc(-c2c(-c3ccc(C(=O)N(C)CCOC)cc3)c3c(N)ncnc3n2C)cc1` [Example 284], the IC50 was in the range of 1 to 100 µM.
The figure for `C=C(C)C(=O)Nc1ccc(-c2c(-c3ccc(C4=NNC(C)O4)nc3)c3c(N)ncnc3n2C)cc1` (stereo not drawn) [Example 285] is 1 to 100 µM.
With `C=C(C)C(=O)Nc1ccc(-c2c(-c3ccc(-c4nnc(C(F)(F)F)o4)cc3)c3c(N)ncnc3n2C)cc1` [Example 286], the IC50 was in the range of 1 to 100 µM.
The compound `C=C(C)C(=O)Nc1ccc(-c2c(-c3ccc4c(c3)C(C)N(C)C4=O)c3c(N)ncnc3n2C)cc1` (stereo not drawn) [Example 287] showed an IC50 of 1 to 100 µM.
The figure for `C=C(C)C(=O)Nc1ccc(-c2c(-c3ccc(S(=N)(=O)N4CCCC4)cc3)c3c(N)ncnc3n2C)cc1` (stereo not drawn) [Example 317] is 0.25 to 1 µM; for `C=C(C)C(=O)Nc1ccc(-c2c(-c3ccc(C(=O)NC(C)CO)cc3)c3c(N)ncnc3n2C)cc1` (stereo not drawn) [Example 319] it is < 0.1 µM; for `C=C(C)C(=O)Nc1ccc(-c2c(-c3ccc(C(=O)NCCO)cc3)c3c(N)ncnc3n2C)cc1` [Example 322] it is 0.25 to 1 µM.
The compound `C=C(C)C(=O)Nc1ccc(-c2c(-c3ccc(C(=O)NCC4CC(O)C4)cc3)c3c(N)ncnc3n2C)cc1` (stereo not drawn) [Example 323] registered an IC50 of 0.1 to 0.25 µM.
Consider `C=C(C)C(=O)Nc1ccc(-c2c(-c3ccc(S(=O)(=O)NC4CCCC4)cc3)c3c(N)ncnc3n2C)cc1` [Example 325], for which the IC50 is 1 to 100 µM.
For `C=C(C)C(=O)Nc1ccc(-c2c(-c3ccc(S(=O)(=O)NCC(F)(F)F)cc3)c3c(N)ncnc3n2C)cc1` [Example 326] the value was 1 to 100 µM.
The compound `C=C(C)C(=O)Nc1ccc(-c2c(-c3ccc(C(=O)NC4CC(O)C4)cc3)c3c(N)ncnc3n2C)cc1` (stereo not drawn) [Example 328] gave an IC50 of 0.25 to 1 µM.
For `C=C(C)C(=O)Nc1ccc(-c2c(-c3ccc(C(=O)NC4CC(CO)C4)cc3)c3c(N)ncnc3n2C)cc1` (stereo not drawn) [Example 330] the value was 0.1 to 0.25 µM.
On to `C=C(C)C(=O)Nc1ccc(-c2c(-c3ccc(C(=O)NCCCOC)cc3)c3c(N)ncnc3n2C)cc1` [Example 333], for which the IC50 is 0.1 to 0.25 µM.
Take `C=C(C)C(=O)Nc1ccc(-c2c(-c3ccc(C(=O)NCC4CNC4)cc3)c3c(N)ncnc3n2C)cc1` [Example 334]: the IC50 fell in the range of 0.25 to 1 µM.
`C=C(C)C(=O)Nc1ccc(-c2c(-c3ccc(C(=O)NCCCO)cc3)c3c(N)ncnc3n2C)cc1` [Example 336]: the IC50 fell in the range of 0.1 to 0.25 µM.
In the case of `C=C(C)C(=O)Nc1ccc(-c2c(-c3ccc(Oc4cccc(C#N)n4)cc3)c3c(N)ncnc3n2C)cc1` [Example 345], the IC50 was < 0.1 µM.
For `C=C(C)C(=O)Nc1ccc(-c2c(-c3ccc(C(=O)NCC4(O)CCC4)cc3)c3c(N)ncnc3n2C)cc1` [Example 347] the value was < 0.1 µM.
